Experimental data as given in PMC4890880 (ACS infectious diseases, 2016).
Like-named read-outs stand apart in the source and are kept apart here.

Legend:
[1] = system: Plasmodium berghei (Pb-Luc) exoerythrocytic-stage parasites; settings: for normalised signal at concentration 10 (first series): concentration 10, first series of dose columns; for normalised signal at concentration 10 (second series): concentration 10, second series of dose columns; for IC50: read-out: PbLuc_IC50
HepG2-A16-CD81EGFP cells = settings: for IC50: read-out: Tox_IC50, HepG2 cytotoxicity
[2] = sheet "2nd round", Broad compounds, dose response top concentration 10
[3] = first series, fraction of control
[4] = second series, fraction of control
[5] = sheet 2nd round, maximal inhibition in dose response
[6] = 2nd round, maximal inhibition in dose series

C[C@@H]1CCCCO[C@@H](CN(C)S(=O)(=O)c2ccc(F)cc2)[C@H](C)CN([C@@H](C)CO)C(=O)c2cc(N(C)C)ccc2O1 [BRD-K44445002-001-01-6]
normalised signal at concentration 0.000508053 (first series) [1]: 0.8297
normalised signal at concentration 0.000508053 (second series) [1]: 0.9522
normalised signal at concentration 0.00152416 (first series) [1]: 0.9815
normalised signal at concentration 0.00152416 (second series) [1]: 1.174
normalised signal at concentration 0.00457247 (first series) [1]: 0.6933
normalised signal at concentration 0.00457247 (second series) [1]: 0.8769
normalised signal at concentration 0.0137174 (first series) [1]: 0.8541
normalised signal at concentration 0.0137174 (second series) [1]: 1.037
normalised signal at concentration 0.0411523 (first series) [1]: 1.012
normalised signal at concentration 0.0411523 (second series) [1]: 1.038
normalised signal at concentration 0.123457 (first series) [1]: 1.095
normalised signal at concentration 0.123457 (second series) [1]: 0.8137
normalised signal at concentration 0.37037 (first series) [1]: 0.8834
normalised signal at concentration 0.37037 (second series) [1]: 0.9753
normalised signal at concentration 1.11111 (first series) [1]: 1.034
normalised signal at concentration 1.11111 (second series) [1]: 0.8748
normalised signal at concentration 3.33333 (first series) [1]: 0.858
normalised signal at concentration 3.33333 (second series) [1]: 0.7361
normalised signal at concentration 10 (first series) [1]: 0.7308
normalised signal at concentration 10 (second series) [1]: 0.7674
IC50 [1, 2]: > 10 µM
PbLuc_max_inhibition (%) ([1]; sheet "2nd round"): 31%
IC50 (HepG2-A16-CD81EGFP cells; sheet "2nd round"): > 10 µM
Tox_max_inhibition (%) (HepG2-A16-CD81EGFP cells; sheet "2nd round"): 2%

O=C(C1CCOCC1)N1C[C@@H]2[C@H](c3ccccc31)[C@H](CO)N2C(=O)Cc1ccccn1 [BRD-K09790760-001-01-0]
normalised signal at concentration 0.000508053 (first series) [1]: 0.7162
normalised signal at concentration 0.000508053 (second series) [1]: 0.9348
normalised signal at concentration 0.00152416 (first series) [1]: 0.8009
normalised signal at concentration 0.00152416 (second series) [1]: 0.7622
normalised signal at concentration 0.00457247 (first series) [1]: 0.9824
normalised signal at concentration 0.00457247 (second series) [1]: 0.8311
normalised signal at concentration 0.0137174 (first series) [1]: 0.8823
normalised signal at concentration 0.0137174 (second series) [1]: 0.8539
normalised signal at concentration 0.0411523 (first series) [1]: 1.052
normalised signal at concentration 0.0411523 (second series) [1]: 0.8968
normalised signal at concentration 0.123457 (first series) [1]: 0.7822
normalised signal at concentration 0.123457 (second series) [1]: 0.8152
normalised signal at concentration 0.37037 (first series) [1]: 0.9579
normalised signal at concentration 0.37037 (second series) [1]: 1.035
normalised signal at concentration 1.11111 (first series) [1]: 0.8507
normalised signal at concentration 1.11111 (second series) [1]: 0.8044
normalised signal at concentration 3.33333 (first series) [1]: 0.9897
normalised signal at concentration 3.33333 (second series) [1]: 1.088
normalised signal at concentration 10 (first series) [1]: 0.9272
normalised signal at concentration 10 (second series) [1]: 0.9177
IC50 [1, 2]: > 10 µM
PbLuc_max_inhibition (%) ([1]; sheet "2nd round"): 28%
IC50 (HepG2-A16-CD81EGFP cells; sheet "2nd round"): > 10 µM
Tox_max_inhibition (%) (HepG2-A16-CD81EGFP cells; sheet "2nd round"): 5%

COc1ccc(S(=O)(=O)N(C)C[C@H]2Oc3ccc(NC(=O)Cc4cn(C)c5ccccc45)cc3C(=O)N([C@H](C)CO)C[C@@H]2C)cc1 [BRD-K30240821-001-02-4]
normalized signal at concentration 10 ([1]; first series of dose-response columns, fraction of control): 0.7772
normalized signal at concentration 0.000508053 [1, 3]: 0.8923
normalized signal at concentration 0.00152416 [1, 3]: 0.848
normalized signal at concentration 0.00457247 [1, 3]: 0.7066
normalized signal at concentration 0.0137174 [1, 3]: 0.8032
normalized signal at concentration 0.0411523 [1, 3]: 0.8311
normalized signal at concentration 0.123457 [1, 3]: 1.098
normalized signal at concentration 0.37037 [1, 3]: 0.9739
normalized signal at concentration 1.11111 [1, 3]: 0.9836
normalized signal at concentration 3.33333 [1, 3]: 0.9041
IC50 ([1]; sheet 2nd round, Broad compounds, dose response): > 10 µM
normalized signal at concentration 10 ([1]; second series of dose-response columns, fraction of control): 0.9286
normalized signal at concentration 0.000508053 [1, 4]: 0.993
normalized signal at concentration 0.00152416 [1, 4]: 0.893
normalized signal at concentration 0.00457247 [1, 4]: 0.9938
normalized signal at concentration 0.0137174 [1, 4]: 0.8741
normalized signal at concentration 0.0411523 [1, 4]: 1.056
normalized signal at concentration 0.123457 [1, 4]: 0.8643
normalized signal at concentration 0.37037 [1, 4]: 1.021
normalized signal at concentration 1.11111 [1, 4]: 1.07
normalized signal at concentration 3.33333 [1, 4]: 1.082
PbLuc_max_inhibition (%) [1, 5]: 29%
IC50 (HepG2-A16-CD81EGFP cells; sheet 2nd round): > 10 µM
Tox_max_inhibition (%) (HepG2-A16-CD81EGFP cells; [5]): 8.48%

COc1ccc(NC(=O)N(C)C[C@H]2Oc3c(NC(=O)CCCCCC(=O)Nc4ccccc4N)cccc3C(=O)N([C@H](C)CO)C[C@H]2C)cc1 [BRD-K75018854-001-01-2]
PbLuc_max_inhibition (%) [1, 6]: 27%
normalized signal at 0.000508053 (first series) ([1]; concentration 0.000508053, first replicate series, fraction of control): 1.05
normalized signal at 0.000508053 (second series) ([1]; concentration 0.000508053, second replicate series, fraction of control): 0.8619
normalized signal at 0.00152416 (first series) ([1]; concentration 0.00152416, first replicate series, fraction of control): 0.9022
normalized signal at 0.00152416 (second series) ([1]; concentration 0.00152416, second replicate series, fraction of control): 0.7297
normalized signal at 0.00457247 (first series) ([1]; concentration 0.00457247, first replicate series, fraction of control): 1.1676
normalized signal at 0.00457247 (second series) ([1]; concentration 0.00457247, second replicate series, fraction of control): 0.8627
normalized signal at 0.0137174 (first series) ([1]; concentration 0.0137174, first replicate series, fraction of control): 0.9808
normalized signal at 0.0137174 (second series) ([1]; concentration 0.0137174, second replicate series, fraction of control): 0.929
normalized signal at 0.0411523 (first series) ([1]; concentration 0.0411523, first replicate series, fraction of control): 1.1704
normalized signal at 0.0411523 (second series) ([1]; concentration 0.0411523, second replicate series, fraction of control): 0.8231
normalized signal at 0.123457 (first series) ([1]; concentration 0.123457, first replicate series, fraction of control): 1.053
normalized signal at 0.123457 (second series) ([1]; concentration 0.123457, second replicate series, fraction of control): 1.0322
normalized signal at 0.37037 (first series) ([1]; concentration 0.37037, first replicate series, fraction of control): 0.9438
normalized signal at 0.37037 (second series) ([1]; concentration 0.37037, second replicate series, fraction of control): 0.8176
normalized signal at 1.11111 (first series) ([1]; concentration 1.11111, first replicate series, fraction of control): 0.9278
normalized signal at 1.11111 (second series) ([1]; concentration 1.11111, second replicate series, fraction of control): 0.8826
normalized signal at 3.33333 (first series) ([1]; concentration 3.33333, first replicate series, fraction of control): 1.001
normalized signal at 3.33333 (second series) ([1]; concentration 3.33333, second replicate series, fraction of control): 1.022
normalized signal at 10 (first series) ([1]; concentration 10, first replicate series, fraction of control): 0.9917
normalized signal at 10 (second series) ([1]; concentration 10, second replicate series, fraction of control): 1.205
IC50 ([1]; 2nd round, Broad DOS compounds, unit not printed (dose series head 10 to 0.000508053)): > 10 µM
Tox_max_inhibition (%) (HepG2-A16-CD81EGFP cells; [6]): 8%
IC50 (HepG2-A16-CD81EGFP cells; 2nd round, unit inferred): > 10 µM
